# Values quoted from earlier work, collected in patent US20230129262A1, “METHODS AND PHARMACEUTICAL COMPOSITIONS OF THROMBOXANE A2 RECEPTOR ANTAGONIST FOR THE TREATMENT OF COVID-19” (priority 2020, published 2023).
# Read-outs that look alike come from different tables or passages of the source.
# Columns and labels:
# platelet activation = details: Tarantino, Amadio et al. 2016
# TP receptor [1] = details: TP receptor blockade, several cited studies
# TP receptor [2] = molecular target: T1, TP receptor (Mus musculus, UniProt P30987); details: model of Duchenne muscular dystrophy (West, Galindo et al. 2019)
# T1 sequence (P30987 1-341): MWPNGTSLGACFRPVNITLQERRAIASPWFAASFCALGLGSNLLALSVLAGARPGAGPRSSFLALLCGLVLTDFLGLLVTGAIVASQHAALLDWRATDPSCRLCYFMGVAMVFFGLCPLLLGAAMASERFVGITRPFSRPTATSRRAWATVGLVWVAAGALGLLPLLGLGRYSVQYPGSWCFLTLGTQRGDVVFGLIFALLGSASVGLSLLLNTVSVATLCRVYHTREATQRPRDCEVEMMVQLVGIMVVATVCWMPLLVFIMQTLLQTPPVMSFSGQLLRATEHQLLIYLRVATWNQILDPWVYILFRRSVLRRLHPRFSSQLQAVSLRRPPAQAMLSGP
# TP receptor [3] = test system: TP receptor
# TP receptor [4] = molecular target: T1, TP receptor; details: pressure-overload model of pulmonary arterial hypertension (West, Voss et al. 2016)
# TP receptor [5] = molecular target: T1, TP receptor; details: bleomycin model of pulmonary fibrosis (Suzuki, Kropski et al. 2021)
# TP receptor [6] = molecular target: T2, TP receptor (Homo sapiens, UniProt P21731); details: patients with acute lung injury; by selectively relaxing pulmonary veins and decreasing post-capillary resistance (Schuster, Kozlowski et al. 2001)
# T2 sequence (P21731 1-343): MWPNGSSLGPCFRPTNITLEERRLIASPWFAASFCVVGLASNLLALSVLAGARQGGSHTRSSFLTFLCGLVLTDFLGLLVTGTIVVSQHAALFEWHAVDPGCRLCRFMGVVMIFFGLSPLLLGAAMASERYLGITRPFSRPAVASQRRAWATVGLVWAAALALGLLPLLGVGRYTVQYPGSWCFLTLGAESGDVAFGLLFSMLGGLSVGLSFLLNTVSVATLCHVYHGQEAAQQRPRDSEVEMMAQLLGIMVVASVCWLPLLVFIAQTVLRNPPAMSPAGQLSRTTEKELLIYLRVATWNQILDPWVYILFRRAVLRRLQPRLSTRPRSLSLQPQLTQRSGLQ
# TP receptor [7] = molecular target: T1, TP receptor; details: chronic hypoxia in mice, potentiated in COX-2 knock-out mice (Cathcart, Tamosiuniene et al. 2008)
# TP receptors = molecular target: T3, TP receptors (Rattus norvegicus, UniProt P34978); details: infusion of the TxA2 mimetic, preclinical studies (Bertolino, Valentin et al. 1995)
# T3 sequence (P34978 1-341): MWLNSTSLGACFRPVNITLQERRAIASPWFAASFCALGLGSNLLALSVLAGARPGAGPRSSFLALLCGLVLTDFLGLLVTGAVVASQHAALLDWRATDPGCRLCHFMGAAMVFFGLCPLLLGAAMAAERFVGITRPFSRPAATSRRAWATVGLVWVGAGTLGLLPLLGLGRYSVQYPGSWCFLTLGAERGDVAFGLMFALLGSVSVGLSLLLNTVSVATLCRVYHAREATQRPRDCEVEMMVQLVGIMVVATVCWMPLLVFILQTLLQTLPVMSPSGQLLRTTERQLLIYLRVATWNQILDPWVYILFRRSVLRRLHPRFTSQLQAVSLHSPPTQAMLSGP
structure (smiles),measurement,setting,value
"CC(=O)Oc1ccccc1C(=O)O [aspirin, acetylsalicylic acid]",platelet activation in venous thrombosis,platelet activation,prevents
same,mortality,"high-dose aspirin (1,000 mg/day), compared to propensity score matched COVID-19 controls (Liu, Huang et al. 2021)",reduced
same,"risk of mechanical ventilation, ICU admission, and in-hospital mortality","low-dose aspirin use, hospitalized COVID-19 patients (Chow, Khanna et al. 2021)",decreased risk
C[C@H](c1ccccc1)[C@@H](O)/C=C/[C@@H]1[C@H](C/C=C\CCCC(=O)O)[C@H]2CC[C@@H]1O2 [SQ28668],"lung injury-associated pulmonary hypertension, hypoxemia, and pulmonary edema",TP receptor [1],inhibited
"CCCCCNC(=O)c1coc([C@H]2[C@@H](Cc3ccccc3CCC(=O)O)[C@@H]3CC[C@H]2O3)n1 [ifetroban, 3-[2-[[(1S,2R,3S,4R)-3-[4-(pentylcarbamoyl)-1,3-oxazol-2-yl]-7-oxabicyclo[2.2.1]heptan-2-yl]methyl]phenyl]propanoic acid]",cardiac function,TP receptor [2],improves
same,right ventricular fibrosis,TP receptor [2],dramatically decreases
same,arterial and tissue oxygenation,TP receptor [3]; compared with septic controls (Quinn and Slotman 1999),significantly increased
same,systemic and pulmonary vasoconstriction,TP receptor [3]; sepsis animal model (Quinn and Slotman 1999),ameliorated
same,cardiac function,TP receptor [4],improves
same,right ventricular fibrosis,TP receptor [4],dramatically decreases
same,"lung injury-associated pulmonary hypertension, hypoxemia, and pulmonary edema",TP receptor [1],inhibited
same,development of fibrosis,TP receptor [5],blocked
same,pulmonary capillary pressure,TP receptor [6],reduced
same,pulmonary hypertension and pulmonary intravascular thrombosis,TP receptor [7],prevented
"CCCCC[C@H](O)/C=C/[C@@H]1[C@@H](C/C=C\CCCC(=O)O)[C@H]2CO[C@@H]1C2 [U-16,619, 9,11-dideoxy-9α, 11α-methanoepoxy prostaglandin F2α]",plasma fluid and protein accumulation in the lung,TP receptors,strongly increased
CCCCCCC(=O)NCC(=O)NC[C@H]1[C@@H](C/C=C\CCCC(=O)O)[C@@H]2CC[C@H]1O2 [SQ30741],"lung injury-associated pulmonary hypertension, hypoxemia, and pulmonary edema",TP receptor [1],inhibited
